Measured values published in patent US12097182B2, “Compounds and methods for treatment of inflammatory bowel disease with extra-intestinal manifestations” (Arena Pharmaceuticals, Inc., priority 2017, dated 2024).

What was measured:
[1] = system: collagen induced arthritis (CIA); details: cited from earlier work
[2] = system: experimental autoimmune encephalomyelitis (EAE); details: up to day 25, when dosing was discontinued; cited from earlier work
[3] = system: lymphocyte; experiment: Single and multiple ascending dose studies in healthy subjects; type: in vivo
[4] = system: chronic plaque psoriasis; details: cited from earlier work

| Structure (SMILES) | ankle diameters in CIA ([1]; prophylactic daily oral dose, day 17, similar to fingolimod or methotrexate) | histological parameters in knees and ankles of CIA rats ([1]; rat, in vivo) | EAE disease onset and severity, prophylactic administration [2] | lymphocyte lowering in healthy subjects [3] | severity of chronic plaque psoriasis ([4]; chronic oral administration, phase 2) | associated adverse events ([4]; phase 2 psoriasis study) |
| --- | --- | --- | --- | --- | --- | --- |
| O=C(O)C[C@H]1CCc2c1[nH]c1ccc(OCc3ccc(C4CCCC4)c(C(F)(F)F)c3)cc21 [Compound 1, (R)-2-(7-(4-cyclopentyl-3-(trifluoromethyl)benzyloxy)-1,2,3,4-tetrahydrocyclopenta[b]indol-3-yl)acetic acid] | significant reduction in ankle diameters | Improvement in histological parameters | prevented the onset and severity of disease relative to vehicle | demonstrated the lymphocyte lowering capabilities |  |  |
| CCC/N=C1\S/C(=C\c2ccc(OC[C@H](O)CO)c(Cl)c2)C(=O)N1c1ccccc1C [ponesimod] |  |  |  |  | reduce the severity of chronic plaque psoriasis | dyspnea, elevated liver enzymes, bradycardia, headache and dizziness |
